Test results published in patent US11186577B2, “Vasopressin receptor antagonists and products and methods related thereto” (BlackThorn Therapeutics, Inc., priority 2017, dated 2021).

How the values were obtained:
[1] = system: wild-type (WT) MDCK cells; test: MDR1-MDCK effective efflux assay (Transwell, 10 μM, 1 hour), wild-type MDCK cells; assay type: in vitro ADME; conditions: MDCK
Description: (§1) The MDR1-MDCK effective efflux assay was performed as described in the BioFocus Standard Operating Procedure, ADME-SOP-56. Both wild-type (WT) and MDR1-MDCK cells (Solvo Biotechnology) were seeded onto 24-well Transwell plates at 2.35×10^5 cells per well and used in confluent monolayers after a 3 day culture at 37° C. under 5% CO2. For both cell types, test and control compounds (propranolol, vinblastine) were added (10 μM, 0.1% DMSO final, n=2) to donor compartments of the Transwell plate assembly in assay buffer (Hanks balanced salt solution supplemented with 25 mM HEPES, adjusted to pH 7.4) for both apical to basolateral (A>B) and basolateral to apical (B>A) measurements. Incubations were performed at 37° C., with samples removed from both donor and acceptor chambers at T=0 and 1 hour and compound analysed by mass spectrometry (LC-MS/MS) including an analytical internal standard.
(§2) Where V is the volume of each Transwell compartment (apical 125 basolateral 600 and concentrations are the relative MS responses for compound (normalized to internal standard) in the donor chamber before incubation and acceptor chamber at the end of the incubation. Area=area of cells exposed for drug transfer (0.33 cm2).
(§3) Efflux ratios (Papp B>A/Papp A>B) were calculated for each compound from the mean Papp values in each direction for both wild-type and MDR1-MDCK cells.
(§4) In order to confirm the involvement of MDR1 in any efflux seen, an “effective efflux ratio” (EER) was calculated by comparing compound efflux ratios (ER) in the two cell types, i.e. EER=ER(MDR1−MDCK)/ER(wild-type MDCK)
(§5) This ratio illustrates the effect of the over-expressed MDR1 normalised for the background movement of compound through the wild-type cells.
(§6) Lucifer Yellow (LY) was added to the apical buffer in all wells to assess viability of the cell layer. Compound recovery from the wells was determined from MS responses (normalized to internal standard) in donor and acceptor chambers at the end of incubation compared to response in the donor chamber pre-incubation.

[2] = as above; assay type: in vitro ADME; conditions: dog, MDCK, pH 7.4, Papp AB WT
Description: as §1, §2, §3, §4, §5, §6

[3] = target: human Oxytocin Receptor (hOTR) (Homo sapiens (Human), UniProt P30559); test: Oxytocin receptor antagonist assay (oxytocin-evoked calcium, FLIPR, CHEM-1-hOTR cells); assay type: cell-based; conditions: read-out: OT IC50
How it was run: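 Antagonist mode in CHEM-1-hOTR cells loaded with Calcium-6 dye; compounds (10-point, 1:3 series) preincubated 15 min at 37 °C, then oxytocin added at daily-determined EC80 in HBSS/20 mM HEPES with 0.1% BSA. Fluorescence (ex 470-495, em 515-575 nm) followed 3 min on FLIPR^TETRA; concentration-dependent reduction of oxytocin response measured.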

MDR1 (P-glycoprotein) = test: MDR1-MDCK effective efflux assay (Transwell, 10 μM, 1 hour), MDR1-MDCK cells; assay type: in vitro ADME; conditions: dog, MDCK-MDR1, pH 7.4, Papp AB MDR1
Description: as §1, §2, §3, §4, §5, §6

MDR1-MDCK cells = test: as above; assay type: in vitro ADME; conditions: MDCK-MDR1
Description: as §1, §2, §3, §4, §5, §6

[4] = target: human Arginine Vasopressin Receptor 1a (AVPR1a) (Homo sapiens (Human), UniProt P37288); test: Vasopressin V1A receptor antagonist assay (AVP-evoked calcium, FLIPR, CHO-AVPR1a cells); assay type: cell-based; conditions: read-out: V1a IC50
How it was run: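 CHO cells expressing human AVPR1a, Calcium-6 dye loaded 60-90 min, preincubated with compound 15 min at 37° C., then challenged with AVP at its daily-determined EC80. FLIPR fluorescence; 10-point 1:3 series from 3 μM, duplicates.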

MDR1 (P-gp) = test: in vitro; conditions: dog, MDCK-MDR1

Chain of human Arginine Vasopressin Receptor 1a (AVPR1a) (P37288 whole entry): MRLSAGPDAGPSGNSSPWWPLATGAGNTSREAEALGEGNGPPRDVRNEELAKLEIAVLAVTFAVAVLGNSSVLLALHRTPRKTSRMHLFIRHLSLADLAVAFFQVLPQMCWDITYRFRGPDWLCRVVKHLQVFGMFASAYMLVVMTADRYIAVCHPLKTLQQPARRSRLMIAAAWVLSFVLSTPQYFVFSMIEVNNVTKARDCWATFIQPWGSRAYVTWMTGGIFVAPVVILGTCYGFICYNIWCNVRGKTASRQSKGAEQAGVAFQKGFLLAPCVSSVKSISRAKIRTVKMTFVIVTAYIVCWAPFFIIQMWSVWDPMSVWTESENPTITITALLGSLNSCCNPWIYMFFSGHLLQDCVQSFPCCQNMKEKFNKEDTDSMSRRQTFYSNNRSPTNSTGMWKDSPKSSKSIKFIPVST
Chain of human Oxytocin Receptor (hOTR) (P30559 whole entry): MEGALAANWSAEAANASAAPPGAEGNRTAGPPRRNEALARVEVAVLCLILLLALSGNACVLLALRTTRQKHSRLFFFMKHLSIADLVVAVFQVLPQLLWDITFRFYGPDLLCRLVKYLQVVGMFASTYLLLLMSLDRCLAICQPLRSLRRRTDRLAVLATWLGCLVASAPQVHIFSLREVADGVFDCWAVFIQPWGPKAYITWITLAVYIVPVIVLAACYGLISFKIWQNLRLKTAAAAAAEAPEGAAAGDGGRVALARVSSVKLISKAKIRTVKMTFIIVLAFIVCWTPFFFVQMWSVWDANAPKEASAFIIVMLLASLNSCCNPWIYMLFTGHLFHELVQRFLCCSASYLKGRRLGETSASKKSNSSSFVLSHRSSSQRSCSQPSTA

| Structure (SMILES) | WT ER [1] | Papp A→B at 1 h, 10 μM [2] [×10⁻⁶ cm/s] | IC50 [3] [nM] | Papp A→B at 1 h, 10 μM (MDR1 (P-glycoprotein)) [×10⁻⁶ cm/s] | MDR1 EER (MDR1-MDCK cells) | MDR1 ER (MDR1-MDCK cells) | IC50 [4] [nM] | Papp A→B at 2 h (MDR1 (P-gp)) [×10⁻⁶ cm/s] |
| --- | --- | --- | --- | --- | --- | --- | --- | --- |
| O=C(C1CCC1)N1Cc2cc(Cl)ccc2-n2c(nnc2C2CC3(C2)CN(c2ccc(F)cn2)C3)C1 [compound 114] | + | < 7 | > 1000 | < 7 | + | + | < 100 |  |
| CC(=O)N1Cc2cc(Cl)ccc2-n2c(nnc2C2CC3(C2)CN(c2cccc(C#N)n2)C3)C1 [compound 94] | + | 10 to 20 | > 1000 | < 7 | + | + | < 100 |  |
| CCC(=O)N1Cc2cc(Cl)ccc2-n2c(nnc2C2CC3(C2)CN(c2cccc(F)n2)C3)C1 [compound 113] | +++ | > 20 | > 1000 | < 7 | + | + | < 100 |  |
| O=C(C1CC1)N1CC2(CC(c3nnc4n3-c3ccc(Cl)cc3CN(C3CC3)C4)C2)C1 [compound 226, (6-(8-chloro-5-cyclopropyl-5,6-dihydro-4H-benzo[1,2,4]triazolo[4,3-a][1,4]diazepin-1-yl)-2-azaspiro[3.3]heptan-2-yl)(cyclopropyl)methanone] |  |  |  |  |  |  |  | < 7 |
| O=C(C1CC1)N1Cc2cc(Cl)ccc2-n2c(nnc2C2CC3(C2)CN(c2ccc(F)cn2)C3)C1 [compound 74] | +++ | > 20 | > 1000 | < 7 | + | + | < 100 |  |
| O=C(C(F)F)N1Cc2cc(Cl)ccc2-n2c(nnc2C2CC3(C2)CN(c2ccc(F)cn2)C3)C1 [compound 116] | ++++ | > 20 | > 1000 | < 7 | + | + | < 100 |  |
| Fc1cnc(N2CC3(CC(c4nnc5n4-c4ccc(Cl)cc4CN(C4CC4)C5)C3)C2)nc1 [compound 224] |  |  |  |  |  |  | < 100 | > 20 |
| Cc1cccc(N2CC3(CC(c4nnc5n4-c4ccc(Cl)cc4CN(C4CC4)C5)C3)C2)n1 [compound 218] |  |  |  |  |  |  | < 100 | > 20 |
| CC(=O)N1Cc2cc(Cl)ccc2-n2c(nnc2C2CC3(C2)CN(c2cnccn2)C3)C1 [compound 93] | + | < 7 | > 1000 | < 7 | + | + | < 100 |  |
| CCC(=O)N1Cc2cc(Cl)ccc2-n2c(nnc2C2CC3(C2)CN(c2cnccn2)C3)C1 [compound 110] | + | 10 to 20 | > 1000 | < 7 | + | + | < 100 |  |
| Cc1nc(N2CC3(CC(c4nnc5n4-c4ccc(Cl)cc4CN(C4CC4)C5)C3)C2)ncc1F [compound 220] |  |  |  |  |  |  | < 100 | > 20 |
| CCC(=O)N1Cc2cc(Cl)ccc2-n2c(nnc2C2CC3(C2)CN(C(=O)C2CC2)C3)C1 [compound 16] | + | < 7 | > 1000 | < 7 | ++ | + | < 100 |  |
| O=C(N1Cc2cc(Cl)ccc2-n2c(nnc2C2CC3(C2)CN(c2ccc(F)cn2)C3)C1)C1(F)CC1 [compound 156] | +++ | > 20 | > 1000 | 10 to 20 | ++ | + | < 100 |  |
| CC(=O)N1Cc2cc(Cl)ccc2-n2c(nnc2C2CC3(C2)CN(c2ccccn2)C3)C1 [compound 73] | + | 10 to 20 | > 1000 | < 7 | + | + | < 100 |  |
| COC(=O)N1Cc2cc(Cl)ccc2-n2c(nnc2C2CC3(C2)CN(c2ncc(F)cn2)C3)C1 [compound 92] | +++ | > 20 | > 1000 | 7 to 10 | + | + | < 100 |  |
| Cc1nc(N2CC3(CC(c4nnc5n4-c4ccc(Cl)cc4CN(C)C5)C3)C2)ccc1F [compound 242] |  |  |  |  |  |  | < 100 | > 20 |
| Fc1ccc(N2CC3(CC(c4nnc5n4-c4ccc(Cl)cc4CN(CC(F)(F)F)C5)C3)C2)nc1 [compound 259, 8-chloro-1-(2-(5-fluoropyridin-2-yl)-2-azaspiro[3.3]heptan-6-yl)-5-(2,2,2-trifluoroethyl)-5,6-dihydro-4H-benzo[f][1,2,4]triazolo[4,3-a][1,4]diazepine] |  |  |  |  |  |  | < 100 | > 20 |
| CC(C)OC(=O)N1Cc2cc(Cl)ccc2-n2c(nnc2C2CC3(C2)CN(C(=O)C2(F)CC2)C3)C1 [compound 147] | + | < 7 |  | < 7 | + | + | < 100 |  |
| CC1c2nnc(C3CC4(C3)CN(c3ccc(F)cn3)C4)n2-c2ccc(Cl)cc2CN1C(=O)OC1CC(F)(F)C1 (stereo not shown) [compound 193, 3,3-difluorocyclobutyl 8-chloro-1-(2-(5-fluoropyridin-2-yl)-2-azaspiro[3.3]heptan-6-yl)-4-methyl-4H-benzo[f][1,2,4]triazolo[4,3-a][1,4]diazepine-5(6H)-carboxylate] | +++ | > 20 | > 1000 | > 20 | +++ | +++ | < 100 |  |
| CCC(=O)N1Cc2cc(Cl)ccc2-n2c(nnc2C2CC3(C2)CN(c2ncccn2)C3)C1 [compound 107, 1-(8-chloro-1-(2-(pyrimidin-2-yl)-2-azaspiro[3.3]heptan-6-yl)-4H-benzo[f][1,2,4]triazolo[4,3-a][1,4]diazepin-5(6H)-yl)propan-1-one] | + | 10 to 20 | > 1000 | < 7 | + | + | < 100 |  |
| CCC(=O)N1Cc2cc(Cl)ccc2-n2c(nnc2C2CC3(C2)CN(c2cccc(C#N)n2)C3)C1 [compound 125] | +++ | > 20 | > 1000 | < 7 | + | + | < 100 |  |
| O=C(C1CC1)N1Cc2cc(Cl)ccc2-n2c(nnc2C2CC3(C2)CN(c2ccccn2)C3)C1 [compound 65] | ++++ | > 20 | > 1000 | < 7 | + | + | < 100 |  |
| CC(C)OC(=O)N1Cc2cc(Cl)ccc2-n2c(C3CC4(C3)CN(c3ccc(F)cn3)C4)nnc2C1C (stereo not shown) [compound 163] | ++++ | > 20 |  | > 20 | +++ | +++ | < 100 |  |
| Clc1ccc2c(c1)CN(C1CC1)Cc1nnc(C3CC4(C3)CN(c3ncccn3)C4)n1-2 [compound 225] |  |  |  |  |  |  | < 100 | > 20 |
